# Measured values reported in patent US12507703B2, “Methods, devices and compositions for preserving human milk” (The Trustees of Princeton University, priority 2023, dated 2025).
# “And” between values parts separate entries of the source, which are not always exact repeats. Identical values can stand only once.
# Test system: lipase
# Experiment: Lipase/lipolysis assay (EnzChek Lipase Substrate, quenched BODIPY-fatty acid conjugate) on stored human milk; also: test concentration or dose not given here
row,Molecule,Lipase (RFU)
1,C[C@H]1CC[C@]2(NC1)O[C@H]1C[C@H]3[C@@H]4CC[C@H]5C[C@@H](O[C@@H]6O[C@H](CO)[C@H](O[C@@H]7O[C@H](CO)[C@@H](O)[C@H](O[C@@H]8OC[C@@H](O)[C@H](O)[C@H]8O)[C@H]7O[C@@H]7O[C@H](CO)[C@@H](O)[C@H](O)[C@H]7O)[C@H](O)[C@H]6O)CC[C@]5(C)[C@H]4CC[C@]3(C)[C@H]1[C@@H]2C [Tomatine],635.5707 RFU
2,N#C[C@H](O[C@@H]1O[C@H](CO[C@@H]2O[C@H](CO)[C@@H](O)[C@H](O)[C@H]2O)[C@@H](O)[C@H](O)[C@H]1O)c1ccccc1 [Amygdalin],1036.373 RFU and 736.6201 RFU
3,C[C@]12CC[C@@H]3c4cc(O)c(O)cc4CC[C@H]3[C@@H]1CC[C@@H]2O [Compound 2-Hydroxyestradiol],1214.209 RFU
4,CC(C)=CCC/C(C)=C/CC/C(C)=C/CC/C(C)=C/CC1=C(C)C(=O)c2ccccc2C1=O [Menaquinone-4],987.2266 RFU
5,Ginkgolide C,1234.872 RFU
6,O=C1C[C@@H](c2ccc(O)c(O)c2)Oc2cc(O[C@@H]3O[C@H](CO)[C@@H](O)[C@H](O)[C@H]3O)cc(O)c21 [Eriodictyol-7-O-glucoside],982.3042 RFU
7,OC[C@H]1O[C@@H](O[C@H]2[C@H](O)[C@@H](O)[C@H](O)O[C@@H]2CO)[C@H](O)[C@@H](O)[C@@H]1O [D-(+)-Cellobiose],821.3157 RFU
8,C[C@H]1[C@H](C)CC[C@]2(C(=O)O)CC[C@]3(C)C(=CC[C@@H]4[C@@]5(C)CC[C@H](O)C(C)(C)[C@@H]5CC[C@]43C)[C@H]12 [3-Epiursolic Acid],968.3096 RFU
9,O=C(/C=C/c1ccc(O)cc1)NCCc1ccc(O)cc1 [N-p-trans-Coumaroyltyramine],1082.731 RFU
10,O=c1c(O[C@@H]2O[C@H](CO[C@@H]3O[C@H](CO)[C@@H](O)[C@H](O)[C@H]3O)[C@@H](O)[C@H](O)[C@H]2O)c(-c2ccc(O)cc2)oc2cc(O)cc(O)c12 [Kaempferol 3-O-gentiobioside],1150.858 RFU
11,COc1cc(C2Oc3ccc([C@H]4Oc5cc(O)cc(O)c5C(=O)[C@@H]4O)cc3OC2CO)ccc1O (some centres unmarked) [Isosilybin],921.7702 RFU
12,O=c1cc(-c2ccc(O)cc2)oc2cc(O)c([C@@H]3O[C@H](CO)[C@@H](O)[C@H](O)[C@H]3O[C@@H]3O[C@H](CO)[C@@H](O)[C@H](O)[C@H]3O)c(O)c12 [Meloside A],811.3753 RFU
13,"COC1=CC(=O)C=C(OC)C1=O [2,6-Dimethoxy-1,4-benzoquinone]",934.6959 RFU
14,O=C(O)C1=CO[C@@H](O[C@@H]2O[C@H](CO)[C@@H](O)[C@H](O)[C@H]2O)[C@H]2[C@@H]1C=C[C@]2(O)CO [Monotropein],976.474 RFU
15,O=c1cc(-c2ccc(O)c(O)c2)oc2cc(O[C@@H]3O[C@H](CO)[C@@H](O)[C@H](O)[C@H]3O)cc(O)c12 [Cynaroside],1111.46 RFU
16,CC(=O)NCCCCNCCCN.Cl.Cl [N8-Acetylspermidine dihydrochloride],781.9265 RFU
17,O=P(O)(O)OP(=O)(O)O [Pyrophosphate],1218.619 RFU and 873.0451 RFU
18,CS(=O)(=O)CC[C@H](N)C(=O)O [L-Methionine Sulfone],897.1863 RFU
19,O=C(O)c1cccc(O)c1O [Pyrocatechuic acid],896.9439 RFU
20,O=c1ccc2cc(O[C@@H]3O[C@H](CO)[C@@H](O)[C@H](O)[C@H]3O)c(O)cc2o1 [Esculin],1207.652 RFU
21,Chondroitin (sulfate),714.418 RFU

row,Molecule,Lipase (RFU)
1,Gluconate (Calcium),840.1946 RFU
2,Eicosadienoic acid,795.3404 RFU
3,CC(=O)c1ccc(O)cc1 [4-Hydroxyacetophenone],724.0191 RFU
4,CC(C)=CCC[C@](C)(O)[C@H]1CC[C@]2(C)[C@@H]1[C@H](O)C[C@@H]1[C@@]3(C)CC[C@H](O)C(C)(C)[C@@H]3[C@@H](O[C@@H]3O[C@H](CO)[C@@H](O)[C@H](O)[C@H]3O[C@@H]3O[C@@H](C)[C@H](O)[C@@H](O)[C@H]3O)C[C@]12C [Ginsenoside Rg2],1144.609 RFU
5,C[C@]12CC[C@H]3[C@@H](CCC4=CC(=O)CC[C@@]43C)[C@@H]1CC[C@@H]2C(=O)CO [Deoxycorticosterone],992.8813 RFU
6,O=C([O-])C(O)Cc1ccc(O)c(O)c1.[Na+] (centres unmarked) [Danshensu (sodium salt)],948.7665 RFU
7,OC[C@@]12OC[C@@H](O1)[C@@H](O)[C@@H](O)[C@@H]2O [Sedoheptulosan],1068.783 RFU
8,CCCCC[C@H](O)/C=C/[C@H]1[C@H](O)CC(=O)[C@@H]1CCCCCCC(=O)O [Prostaglandin E1],787.5664 RFU
9,Fucoidan from Macrocystis pyrifera,384.150 RFU
10,(−)-Epigallocatechin Gallate,333.087 RFU
11,CC1(C)CC[C@]2(C)CC[C@]3(C)C(=CC[C@@H]4[C@@]5(C)CC[C@H](O)C(C)(C)[C@@H]5CC[C@]43C)[C@@H]2C1 [β-Amyrin],1183.423 RFU
12,CC(=O)N[C@@H]1C(O)O[C@H](CO)[C@@H](O)[C@@H]1O (stereo partly drawn) [Cyclic N-Acetyl-D-mannosamine],868.6631 RFU
13,"Nc1nc2c(ncn2[C@@H]2O[C@@H]3COP(=O)(O)O[C@H]3[C@H]2O)c(=O)[nH]1 [Guanosine-3′,5′-cyclic monophosphate]",813.7484 RFU and 1141.322 RFU
14,Adenine (hemisulfate),842.2125 RFU
15,C[S+](CC[C@H](N)C(=O)[O-])C[C@H]1O[C@@H](n2cnc3c(N)ncnc32)[C@H](O)[C@@H]1O.Cc1ccc(S(=O)(=O)O)cc1.O=S(=O)(O)O.O=S(=O)(O)O (some centres unmarked),726.0141 RFU
16,Cl.NCC(=O)CCC(=O)O [5-Aminolevulinic acid (hydrochloride)],643.3591 RFU
17,OC[C@H]1O[C@@](CO)(O[C@H]2O[C@H](CO)[C@@H](O)[C@H](O)[C@H]2O)[C@@H](O[C@H]2O[C@H](CO)[C@@H](O)[C@H](O)[C@H]2O)[C@@H]1O [D-(+)-Melezitose],886.4563 RFU
18,C[C@]12CCC(=O)C=C1CC[C@@H]1[C@@H]2C(=O)C[C@]2(C)C(=O)CC[C@@H]12 [Adrenosterone],757.5347 RFU
19,CC1C(=O)OC2C(O)C34C5CC(C(C)(C)C)C36C(OC(=O)C6O)OC4(C(=O)O5)C12O (centres unmarked) [Ginkgolide B],1094.796 RFU
20,"CCCCCC(O)/C=C/C=O (centres unmarked) [Compound 4-Hydroxynonenal, 4-Hydroxynonenal]",827.4103 RFU
